Results taken from ChEMBL document CHEMBL6134867, “Design and Synthesis of FR-β Targeting Chimeric Molecules for Reprogramming Tumor-Associated Macrophages Using 6-Substituted Pyrrolo[2,3-d]pyrimidines as Targeting Ligands” (J Med Chem, 2025).
The source made the active and inactive calls. The rule behind the calls is not given here.

How the values were obtained:
[1] = tested on: 4T1; assay: Cytotoxicity against mouse 4T1 cells assessed as reduction in cell viability incubated for 24 hrs by CCK-8 assay; assay type: toxicity, cell-based; details: 4t1, 24 h
[2] = Toxicity against BALB/c mouse xenografted with mouse 4T1 cells assessed as pathological changes in spleen at 1 mg/kg, iv qd for 14 days by Hematoxylin-Eosin staining based analysis; assay type: organism-based; details: in vivo, 336 h, time 14 day
[3] = tested on: Mus musculus; assay: In vivo transition from anti-inflammatory to pro-inflammatory phenotypes in BALB/c mouse xenografted with mouse 4T1 cells assessed as upregulation in proportion of CD8+ cells at 1 mg/kg, iv qd for 14 days by flow cytometry; assay type: functional, organism-based; details: time 14.0 day
[4] = Toxicity against BALB/c mouse xenografted with mouse 4T1 cells assessed as effect on body weight at 1 mg/kg, iv qd for 14 days and measured every day; assay type: organism-based; details: in vivo, 336 h, time 14 day
[5] = Toxicity against BALB/c mouse xenografted with mouse 4T1 cells assessed as pathological changes in heart at 1 mg/kg, iv qd for 14 days by Hematoxylin-Eosin staining based analysis; assay type: organism-based; details: in vivo, 336 h, time 14 day
[6] = Toxicity against BALB/c mouse xenografted with mouse 4T1 cells assessed as pathological changes in kidney at 1 mg/kg, iv qd for 14 days by Hematoxylin-Eosin staining based analysis; assay type: organism-based; details: in vivo, 336 h, time 14 day
[7] = Stability of the compound in PBS measured at 4 degC and for 15 days; assay type: physicochemical; details: time 15 day, read-out: Stability
[8] = tested on: 4T1; assay: Antitumor activity against mouse 4T1 cells xenografted in BALB/c mouse assessed as inhibition of tumor growth at 1 mg/kg, iv qd for 14 days and measured every day by digital caliper analysis; assay type: functional, organism-based; details: time 14.0 day
[9] = Toxicity against BALB/c mouse xenografted with mouse 4T1 cells assessed as pathological changes in liver at 1 mg/kg, iv qd for 14 days by Hematoxylin-Eosin staining based analysis; assay type: organism-based; details: in vivo, 336 h, time 14 day
[10] = Toxicity against BALB/c mouse xenografted with mouse 4T1 cells assessed as heightened inflammatory response in lung at 1 mg/kg, iv qd for 14 days by Hematoxylin-Eosin staining based analysis; assay type: organism-based; details: in vivo, 336 h, time 14 day
[11] = Prodrug release assessed as IMDQ formation in presence of 10 mM GSH and measured after 1 to 8 hrs by HPLC analysis; assay type: ADME; details: time 1-8 hrs
[12] = tested on: Mus musculus; assay: In vivo transition from anti-inflammatory to pro-inflammatory phenotypes in BALB/c mouse xenografted with mouse 4T1 cells assessed as CD4+ cells population at 1 mg/kg, iv qd for 14 days by flow cytometry; assay type: functional, organism-based; details: time 14.0 day
[13] = tested on: Mus musculus; assay: In vivo transition from anti-inflammatory to pro-inflammatory phenotypes in BALB/c mouse xenografted with mouse 4T1 cells assessed as decrease in proportion of Ly6C+ and Ly6G+ cells within CD45+ population at 1 mg/kg, iv qd for 14 days by flow cytometry; assay type: functional, organism-based; details: time 14.0 day
[14] = Stability of the compound in mouse plasma at 5 uM and measured at 37 degC and for up to 12 hrs by HPLC analysis; assay type: ADME, cell-free; details: for remaining at 12 h, 5 µM: read-out: Stability
[15] = Cytotoxicity against mouse BMDM cells assessed as reduction in cell viability incubated for 24 hrs by CCK-8 assay; assay type: toxicity, cell-based
[16] = tested on: HUVEC; assay: Cytotoxicity against human HUVEC cells assessed as reduction in cell viability incubated for 24 hrs by CCK-8 assay; assay type: toxicity, cell-based
[17] = tested on: BMDM; assay: Induction of macrophage repolarization in FR-beta expressing IL-4 differentiated M2 phenotype mouse BMDM cells assessed as reprogramming to M1 phenotype by measuring downregulation of Arg1 mRNA expression at 10 nM incubated for 24 hrs by RT-qPCR analysis; assay type: functional, cell-based
[18] = tested on: BMDM; assay: Induction of macrophage repolarization in FR-beta expressing IL-4 differentiated M2 phenotype mouse BMDM cells assessed as reprogramming to M1 phenotype by measuring downregulation of Arg1 expression at 10 nM incubated for 24 hrs by western blot analysis; assay type: functional, cell-based
[19] = tested on: BMDM; assay: Induction of macrophage repolarization in FR-beta expressing IL-4 differentiated M2 phenotype mouse BMDM cells assessed as reprogramming to M1 phenotype by measuring upregulation of iNOS expression at 10 nM incubated for 24 hrs by western blot analysis; assay type: functional, cell-based
[20] = tested on: BMDM; assay: Induction of macrophage repolarization in FR-beta expressing IL-4 differentiated M2 phenotype mouse BMDM cells assessed as reprogramming to M1 phenotype by measuring downregulation of CD206 expression at 10 nM incubated for 24 hrs by western blot analysis; assay type: functional, cell-based
[21] = tested on: BMDM; assay: Induction of macrophage repolarization in FR-beta expressing IL-4 differentiated M2 phenotype mouse BMDM cells assessed as reprogramming to M1 phenotype by measuring upregulation of iNOS mRNA expression at 10 nM incubated for 24 hrs by RT-qPCR analysis; assay type: functional, cell-based
[22] = tested on: BMDM; assay: Induction of macrophage repolarization in FR-beta expressing IL-4 differentiated M2 phenotype mouse BMDM cells assessed as reprogramming to M1 phenotype by measuring downregulation of CD206 mRNA expression at 10 nM incubated for 24 hrs by RT-qPCR analysis; assay type: functional, cell-based
[23] = tested on: BMDM; assay: Induction of macrophage repolarization in FR-beta expressing IL-4 differentiated M2 phenotype mouse BMDM cells assessed as reprogramming to M1 phenotype by measuring upregulation of TLR7 expression at 10 nM incubated for 24 hrs by western blot analysis; assay type: functional, cell-based
[24] = tested on: BMDM; assay: Induction of macrophage repolarization in FR-beta expressing IL-4 differentiated M2 phenotype mouse BMDM cells assessed as reprogramming to M1 phenotype by measuring downregulation of IL-10 mRNA expression at 10 nM incubated for 24 hrs by RT-qPCR analysis; assay type: functional, cell-based
[25] = tested on: BMDM; assay: Induction of macrophage repolarization in FR-beta expressing IL-4 differentiated M2 phenotype mouse BMDM cells assessed as reprogramming to M1 phenotype by measuring upregulation of IL-6 mRNA expression at 10 nM incubated for 24 hrs by RT-qPCR analysis; assay type: functional, cell-based
[26] = tested on: BMDM; assay: Induction of macrophage repolarization in FR-beta expressing IL-4 differentiated M2 phenotype mouse BMDM cells assessed as reprogramming to M1 phenotype by measuring upregulation of IL-6 level at 10 nM incubated for 24 hrs by ELISA; assay type: functional, cell-based
[27] = tested on: BMDM; assay: Induction of macrophage repolarization in FR-beta expressing IL-4 differentiated M2 phenotype mouse BMDM cells assessed as reprogramming to M1 phenotype by measuring downregulation of IL-10 level at 10 nM incubated for 24 hrs by ELISA; assay type: functional, cell-based
[28] = tested on: BMDM; assay: Induction of macrophage repolarization in FR-beta expressing IL-4 differentiated M2 phenotype mouse BMDM cells assessed as reprogramming to M1 phenotype by measuring TNF-alpha level at 10 nM incubated for 24 hrs by ELISA; assay type: functional, cell-based
[29] = tested on: BMDM; assay: Induction of macrophage repolarization in FR-beta expressing IL-4 differentiated M2 phenotype mouse BMDM cells assessed as reprogramming to M1 phenotype by measuring upregulation of MyD88 expression at 10 nM incubated for 24 hrs by western blot analysis; assay type: functional, cell-based
[30] = tested on: BMDM; assay: Induction of macrophage repolarization in FR-beta expressing IL-4 differentiated M2 phenotype mouse BMDM cells assessed as reprogramming to M1 phenotype by measuring TNF-alpha mRNA expression at 10 nM incubated for 24 hrs by RT-qPCR analysis; assay type: functional, cell-based

remaining at 360 h [7] [%]	Drug metabolism [11]	Compound	Activity [1]	Activity [2]	Activity [3]	Activity [4]	Activity [5]	Activity [6]	Activity [8]	Activity [9]	Activity [10]	Activity [12]	Activity [13]	Activity [15]	Activity [16]	Activity [19]	Activity [20]	other results
–	–	Nc1nc2[nH]c(CCCCc3ccc(C(=O)N[C@@H](CCC(=O)N[C@@H](CS)C(=O)O)C(=O)O)s3)cc2c(=O)[nH]1	Non-toxic	–	–	–	–	–	–	–	–	–	–	–	–	–	–	–
–	–	Nc1nc2[nH]c(CC(=O)NCC(=O)N[C@@H](CCC(=O)N[C@@H](CS)C(=O)O)C(=O)O)cc2c(=O)[nH]1	Non-toxic	–	–	–	–	–	–	–	–	–	–	–	–	–	–	–
> 95	metabolite_detected	CCCCc1nc2c(N)nc3ccccc3c2n1Cc1ccc(CNC(=O)OCCSSC[C@H](NC(=O)CC[C@H](NC(=O)c2ccc(CCCCc3cc4c(=O)[nH]c(N)nc4[nH]3)s2)C(=O)O)C(=O)O)cc1	Non-toxic	Non-toxic	Active	Non-toxic	Non-toxic	Non-toxic	Active	Non-toxic	Non-toxic	inactive	Active	Non-toxic	Non-toxic	–	–	remaining at 12 h, 5 µM [14]: 95%
< 95	metabolite_detected	CCCCc1nc2c(N)nc3ccccc3c2n1Cc1ccc(CNC(=O)OCCSSC[C@H](NC(=O)CC[C@H](NC(=O)c2ccc(NCc3cnc4nc(N)[nH]c(=O)c4n3)cc2)C(=O)O)C(=O)O)cc1	Non-toxic	Non-toxic	Active	Non-toxic	Non-toxic	Non-toxic	Active	Non-toxic	Non-toxic	inactive	Active	Non-toxic	Non-toxic	Active; Less Effective Than Fgt-2,4 Observed	Active; Less Effective Than Fgt-2,4 Observed	Activity [17]: Active; Less Effective Than Fgt-2,4 Observed; Activity [18]: Active; Less Effective Than Fgt-2,4 Observed; Stability ([14]; 12 h, 5 µM): Unstable; Activity [21]: Active; Less Effective Than Fgt-2,4 Observed; Activity [22]: Active; Less Effective Than Fgt-2,4 Observed
–	–	Nc1nc2[nH]c(CCCCc3ccc(C(=O)N[C@@H](CCC(=O)N[C@@H](CS)C(=O)O)C(=O)O)cc3)cc2c(=O)[nH]1	Non-toxic	–	–	–	–	–	–	–	–	–	–	–	–	inactive	inactive	Activity [23]: inactive
> 95	metabolite_detected	CCCCc1nc2c(N)nc3ccccc3c2n1Cc1ccc(CNC(=O)OCCSSC[C@H](NC(=O)CC[C@H](NC(=O)CNC(=O)Cc2cc3c(=O)[nH]c(N)nc3[nH]2)C(=O)O)C(=O)O)cc1	Non-toxic	Non-toxic	Active	Non-toxic	Non-toxic	Non-toxic	Active	Non-toxic	Non-toxic	inactive	Active	Non-toxic	Non-toxic	Active	Active	Activity [24]: Active; Activity [17]: Active; Activity [25]: Active; Activity [26]: Active; Activity [18]: Active; Activity [27]: Active; Activity [28]: inactive; Activity [29]: Active; Activity [30]: inactive; remaining at 12 h, 5 µM [14]: 95%; Activity [21]: Active; Activity [22]: Active
–	–	Nc1nc(O)c2nc(CNc3ccc(C(=O)N[C@@H](CCC(=O)N[C@@H](CS)C(=O)O)C(=O)O)cc3)cnc2n1	Non-toxic	–	–	–	–	–	–	–	–	–	–	–	–	–	–	–
